Data reported in patent publication US11883526B2 (priority 2019, dated 2024).

Test system: patients with treatment-resistant depression (TRD)
Assay: Adverse events (Example 7)
Format: in vivo, human
Details: for Dissociation, number of participants / Dissociative disorder, % of participants / Dissociative disorder, number of participants / Dizziness, % of participants / Dizziness, number of participants / Dysgeusia, % of participants / Dysgeusia, number of participants / Feeling abnormal, % of participants / Feeling abnormal, number of participants / Headache, % of participants / Headache, number of participants / Hypersomnia, % of participants / Hypersomnia, number of participants / Hypertension, number of participants / Hypoesthesia oral, % of participants / Hypoesthesia oral, number of participants / Insomnia, number of participants / Nasal discomfort, number of participants / Nausea, % of participants / Nausea, number of participants / Oropharyngeal pain, number of participants / Polyuria, number of participants / Sedation, % of participants / Sedation, number of participants / Throat irritation, % of participants / Throat irritation, number of participants / Total with events, % of participants / Total with events, number of participants / Tunnel vision, number of participants / Vertigo, % of participants / Vertigo, number of participants / Vision blurred, number of participants / Dissociation, % of participants / Hypertension, % of participants / Insomnia, % of participants / Nasal discomfort, % of participants / Oropharyngeal pain, % of participants / Polyuria, % of participants / Tunnel vision, % of participants / Vision blurred, % of participants: double-blind
Method: Adverse events were monitored throughout the study. Other safety assessments (i.e., laboratory tests, vital signs, physical examination) were performed at pre-specified time points. Vital signs, the Clinician Administered Dissociative States Scale (CADSS; Bremner, “Measurement of dissociative states with the clinician-administered dissociative states scale (CADSS)”, J. Traumatic Stress, 1998, 11(1):125-136), and the 4-item positive symptom subscale from the Brief Psychiatric Rating Scale (BPRS; Overall, “The Brief Psychiatric Rating Scale. Psychological Reports”, 1962, 10:799-812) were assessed pre-dose, at 40 minutes, and 2 hours post-dose.
Safety data were analyzed in Period 1, Period 2, double-blind, and open-label data sets, for all subjects receiving at least 1 dose of study medication.

CN[C@]1(c2ccccc2Cl)CCCCC1=O [esketamine, (S)-2-(2-chlorophenyl)-2-(methylamino)cyclohexanone]
participants with adverse events leading to discontinuation of study drug (double-blind phase): 5% | Dissociation, number of participants (28 mg): 0 | Dissociative disorder, % of participants (28 mg): (11) % | Dissociative disorder, number of participants (28 mg): 2 | Dizziness, % of participants (28 mg): (21) % | Dizziness, number of participants (28 mg): 4 | Dysgeusia, % of participants (28 mg): (11) % | Dysgeusia, number of participants (28 mg): 2 | Feeling abnormal, % of participants (28 mg): (11) % | Feeling abnormal, number of participants (28 mg): 2 | Headache, % of participants (28 mg): (32) % | Headache, number of participants (28 mg): 6 | Hypersomnia, % of participants (28 mg): (11) % | Hypersomnia, number of participants (28 mg): 2 | Hypertension, number of participants (28 mg): 0 | Hypoesthesia oral, % of participants (28 mg): (5) % | Hypoesthesia oral, number of participants (28 mg): 1 | Insomnia, number of participants (28 mg): 0 | Nasal discomfort, number of participants (28 mg): 0 | Nausea, % of participants (28 mg): (11) % | Nausea, number of participants (28 mg): 2 | Oropharyngeal pain, number of participants (28 mg): 0 | Polyuria, number of participants (28 mg): 0 | Sedation, % of participants (28 mg): (5) % | Sedation, number of participants (28 mg): 1 | Throat irritation, % of participants (28 mg): (5) % | Throat irritation, number of participants (28 mg): 1 | Total with events, % of participants (28 mg): (58) % | Total with events, number of participants (28 mg): 11 | Tunnel vision, number of participants (28 mg): 0 | Vertigo, % of participants (28 mg): (11) % | Vertigo, number of participants (28 mg): 2 | Vision blurred, number of participants (28 mg): 0 | Dissociation, % of participants (56 mg): (35) % | Dissociation, number of participants (56 mg): 7 | Dissociative disorder, % of participants (56 mg): (5) % | Dissociative disorder, number of participants (56 mg): 1 | Dizziness, % of participants (56 mg): (40) % | Dizziness, number of participants (56 mg): 8 | Dysgeusia, % of participants (56 mg): (15) % | Dysgeusia, number of participants (56 mg): 3 | Feeling abnormal, % of participants (56 mg): (5) % | Feeling abnormal, number of participants (56 mg): 1 | Headache, % of participants (56 mg): (15) % | Headache, number of participants (56 mg): 3 | Hypersomnia, number of participants (56 mg): 0 | Hypertension, % of participants (56 mg): (10) % | Hypertension, number of participants (56 mg): 2 | Hypoesthesia oral, % of participants (56 mg): (20) % | Hypoesthesia oral, number of participants (56 mg): 4 | Insomnia, % of participants (56 mg): (10) % | Insomnia, number of participants (56 mg): 2 | Nasal discomfort, % of participants (56 mg): (10) % | Nasal discomfort, number of participants (56 mg): 2 | Nausea, % of participants (56 mg): (20) % | Nausea, number of participants (56 mg): 4 | Oropharyngeal pain, % of participants (56 mg): (5) % | Oropharyngeal pain, number of participants (56 mg): 1 | Polyuria, % of participants (56 mg): (10) % | Polyuria, number of participants (56 mg): 2 | Sedation, % of participants (56 mg): (10) % | Sedation, number of participants (56 mg): 2 | Throat irritation, number of participants (56 mg): 0 | Total with events, % of participants (56 mg): (80) % | Total with events, number of participants (56 mg): 16 | Tunnel vision, number of participants (56 mg): 0 | Vertigo, % of participants (56 mg): (5) % | Vertigo, number of participants (56 mg): 1 | Vision blurred, number of participants (56 mg): 0 | Dissociation, % of participants (84 mg): (24) % | Dissociation, number of participants (84 mg): 4 | Dissociative disorder, % of participants (84 mg): (24) % | Dissociative disorder, number of participants (84 mg): 4 | Dizziness, % of participants (84 mg): (47) % | Dizziness, number of participants (84 mg): 8 | Dysgeusia, % of participants (84 mg): (29) % | Dysgeusia, number of participants (84 mg): 5 | Feeling abnormal, % of participants (84 mg): (6) % | Feeling abnormal, number of participants (84 mg): 1 | Headache, % of participants (84 mg): (18) % | Headache, number of participants (84 mg): 3 | Hypersomnia, number of participants (84 mg): 0 | Hypertension, % of participants (84 mg): (6) % | Hypertension, number of participants (84 mg): 1 | Hypoesthesia oral, % of participants (84 mg): (12) % | Hypoesthesia oral, number of participants (84 mg): 2 | Insomnia, number of participants (84 mg): 0 | Nasal discomfort, % of participants (84 mg): (6) % | Nasal discomfort, number of participants (84 mg): 1 | Nausea, % of participants (84 mg): (24) % | Nausea, number of participants (84 mg): 4 | Oropharyngeal pain, % of participants (84 mg): (12) % | Oropharyngeal pain, number of participants (84 mg): 2 | Polyuria, number of participants (84 mg): 0 | Sedation, % of participants (84 mg): (6) % | Sedation, number of participants (84 mg): 1 | Throat irritation, % of participants (84 mg): (12) % | Throat irritation, number of participants (84 mg): 2 | Total with events, % of participants (84 mg): (88) % | Total with events, number of participants (84 mg): 15 | Tunnel vision, % of participants (84 mg): (12) % | Tunnel vision, number of participants (84 mg): 2 | Vertigo, % of participants (84 mg): (6) % | Vertigo, number of participants (84 mg): 1 | Vision blurred, % of participants (84 mg): (12) % | Vision blurred, number of participants (84 mg): 2 | Dissociation, % of participants (esketamine Total): (20) % | Dissociation, number of participants (esketamine Total): 11 | Dissociative disorder, % of participants (esketamine Total): (13) % | Dissociative disorder, number of participants (esketamine Total): 7 | Dizziness, % of participants (esketamine Total): (36) % | Dizziness, number of participants (esketamine Total): 20 | Dysgeusia, % of participants (esketamine Total): (18) % | Dysgeusia, number of participants (esketamine Total): 10 | Feeling abnormal, % of participants (esketamine Total): (7) % | Feeling abnormal, number of participants (esketamine Total): 4 | Headache, % of participants (esketamine Total): (21) % | Headache, number of participants (esketamine Total): 12 | Hypersomnia, % of participants (esketamine Total): (4) % | Hypersomnia, number of participants (esketamine Total): 2 | Hypertension, % of participants (esketamine Total): (5) % | Hypertension, number of participants (esketamine Total): 3 | Hypoesthesia oral, % of participants (esketamine Total): (13) % | Hypoesthesia oral, number of participants (esketamine Total): 7 | Insomnia, % of participants (esketamine Total): (4) % | Insomnia, number of participants (esketamine Total): 2 | Nasal discomfort, % of participants (esketamine Total): (5) % | Nasal discomfort, number of participants (esketamine Total): 3 | Nausea, % of participants (esketamine Total): (18) % | Nausea, number of participants (esketamine Total): 10 | Oropharyngeal pain, % of participants (esketamine Total): (5) % | Oropharyngeal pain, number of participants (esketamine Total): 3 | Polyuria, % of participants (esketamine Total): (4) % | Polyuria, number of participants (esketamine Total): 2 | Sedation, % of participants (esketamine Total): (7) % | Sedation, number of participants (esketamine Total): 4 | Throat irritation, % of participants (esketamine Total): (5) % | Throat irritation, number of participants (esketamine Total): 3 | Total with events, % of participants (esketamine Total): (75) % | Total with events, number of participants (esketamine Total): 42 | Tunnel vision, % of participants (esketamine Total): (4) % | Tunnel vision, number of participants (esketamine Total): 2 | Vertigo, % of participants (esketamine Total): (7) % | Vertigo, number of participants (esketamine Total): 4 | Vision blurred, % of participants (esketamine Total): (4) % | Vision blurred, number of participants (esketamine Total): 2 | deaths (in vivo): No death | adverse event incidence: dizziness (open-label phase): 38.6% | adverse event incidence: dysgeusia (open-label phase): 22.8% | adverse event incidence: headache (open-label phase): 14.0% | adverse event incidence: nausea (open-label phase): 15.8% | adverse event incidence: sedation (open-label phase): 10.5% | participants reporting transient dissociative symptoms (open-label phase): 24.6% | participants with adverse events leading to discontinuation of study drug (open-label phase): 2%
